Results: ChEMBL document CHEMBL6134778, “Spiro-Azetidine Oxindoles as Long-Acting Injectables for Pre-Exposure Prophylaxis against Respiratory Syncytial Virus Infections” (J Med Chem, 2024)
In brackets after ≈: the same amount, converted by molar mass.

Tests used:
[1] = Intrinsic clearance in human liver microsomes assessed per mg protein at 1 uM measured after 60 mins in presence of NADPH by LC-MS/MS analysis; type: ADME, Microsome; conditions: read-out: CLH
[2] = tested on: Respiratory syncytial virus; experiment: Antiviral activity against RSV A/07-041911 harboring eGFP infected in human HeLa cells assessed as reduction in virus replication measured after 3 days by laser microscopy; type: functional, organism-based; conditions: A/07-041911, HeLa, 72 h
[3] = Thermodynamic solubility in aqueous buffer at pH 7 incubated for 24 hrs by UPLC analysis; type: physicochemical; conditions: read-out: Therm_solubility
[4] = tested on: Respiratory syncytial virus; experiment: Antiviral activity against RSV A2 harboring eGFP infected in human HeLa cells assessed as reduction in virus replication measured after 3 days by laser microscopy; type: functional, organism-based; conditions: 72 h
Canis familiaris [5] = experiment: Particle size for the 50th percentile of the cumulative volume distribution in Beagle dog at 20 mg/kg, IM […]; type: ADME, organism-based, Canis lupus familiaris; conditions: in vivo
[6] = tested on: Respiratory syncytial virus; experiment: Antiviral activity against RSV A/11-014288 harboring eGFP infected in human HeLa cells assessed as reduction in virus replication measured after 3 days by laser microscopy; type: functional, organism-based; conditions: A/11-014288, HeLa, 72 h
Rattus norvegicus [7] = experiment: Release rate constant in Sprague-Dawley rat at 50 mg/kg, IM measured over 12 weeks by LC-MS/MS analysis; type: ADME, organism-based; conditions: in vivo, 2016 h
[8] = tested on: Respiratory syncytial virus; experiment: Antiviral activity against RSV A/13-000323 harboring eGFP infected in human HeLa cells assessed as reduction in virus replication measured after 3 days by laser microscopy; type: functional, organism-based; conditions: A/13-000323, HeLa, 72 h
Canis familiaris [9] = experiment: Release rate constant in Beagle dog at 20 mg/kg, IM by LC-MS/MS analysis; type: ADME, organism-based, Canis lupus familiaris; conditions: in vivo
[10] = tested on: Respiratory syncytial virus; experiment: Antiviral activity against RSV B/11-050703 harboring eGFP infected in human HeLa cells assessed as reduction in virus replication measured after 3 days by laser microscopy; type: functional, organism-based; conditions: B/11-050703, HeLa, 72 h
[11] = Volume of distribution at steady state in Beagle dog at 0.25 mg/kg, iv by LC-MS/MS analysis; type: ADME, organism-based, Canis lupus familiaris; conditions: in vivo, read-out: Vdss
[12] = Intrinsic clearance in human hepatocytes assessed per million cells measured after 6 hrs using tritiated compound by LC-MS/MS analysis; type: ADME, cell-based, Hepatocyte; conditions: read-out: CLH
[13] = tested on: Respiratory syncytial virus; experiment: Antiviral activity against RSV A Memphis 37 harboring eGFP infected in human HeLa cells assessed as reduction in virus replication measured after 3 days by laser microscopy; type: functional, organism-based; conditions: A Memphis 37, HeLa, 72 h
[14] = tested on: Respiratory syncytial virus; experiment: Antiviral activity against RSV A2 harboring V76A/Y117H/N517I/L172Q mutant infected in human HeLa cells assessed as reduction in virus replication measured after 3 days by laser microscopy; type: functional, organism-based; conditions: 72 h
[15] = tested on: Respiratory syncytial virus; experiment: Antiviral activity against RSV A/12-049454 harboring eGFP infected in human HeLa cells assessed as reduction in virus replication measured after 3 days by laser microscopy; type: functional, organism-based; conditions: A/12-049454, HeLa, 72 h
[16] = tested on: Respiratory syncytial virus; experiment: Antiviral activity against RSV B/03-034613 harboring eGFP infected in human HeLa cells assessed as reduction in virus replication measured after 3 days by laser microscopy; type: functional, organism-based; conditions: B/03-034613, HeLa, 72 h
[17] = Bioavailability in Sprague-Dawley rat assessed as dose released at 50 mg/kg, IM measured over 12 weeks by LC-MS/MS analysis; type: ADME, organism-based; conditions: in vivo
[18] = Volume of distribution at steady state in Sprague-Dawley rat at 1 mg/kg, iv by LC-MS/MS analysis; type: ADME, organism-based; conditions: in vivo, read-out: Vdss
[19] = tested on: Respiratory syncytial virus; experiment: Antiviral activity against RSV B/18-002094 harboring eGFP infected in human HeLa cells assessed as reduction in virus replication measured after 3 days by laser microscopy; type: functional, organism-based; conditions: B/18-002094, HeLa, 72 h
[20] = tested on: Respiratory syncytial virus; experiment: Antiviral activity against RSV B Wash/18537 harboring eGFP infected in human HeLa cells assessed as reduction in virus replication measured after 3 days by laser microscopy; type: functional, organism-based; conditions: B Wash/18537, HeLa, 72 h
[21] = Clearance in Sprague-Dawley rat at 1 mg/kg, iv by LC-MS/MS analysis; type: ADME, organism-based; conditions: in vivo
[22] = tested on: Respiratory syncytial virus; experiment: Antiviral activity against RSV B/05-036549 harboring eGFP infected in human HeLa cells assessed as reduction in virus replication measured after 3 days by laser microscopy; type: functional, organism-based; conditions: B/05-036549, HeLa, 72 h
[23] = tested on: Respiratory syncytial virus; experiment: Antiviral activity against RSV rgRSV224 (A2-GFP) harboring eGFP infected in human HeLa cells assessed as reduction in virus replication measured after 3 days by laser microscopy; type: functional, organism-based; conditions: 72 h
[24] = Bioavailability in Beagle dog assessed as dose released at 20 mg/kg, IM by LC-MS/MS analysis; type: ADME, organism-based, Canis lupus familiaris; conditions: in vivo
[25] = tested on: Respiratory syncytial virus; experiment: Antiviral activity against RSV pSynk-A2F (A2-mKate2) harboring eGFP infected in human HeLa cells assessed as reduction in virus replication measured after 3 days by laser microscopy; type: functional, organism-based; conditions: 72 h
[26] = tested on: Respiratory syncytial virus; experiment: Antiviral activity against RSV B pSynk-18537F (18537-mKate2) harboring eGFP infected in human HeLa cells assessed as reduction in virus replication measured after 3 days by laser microscopy; type: functional, organism-based; conditions: 72 h
[27] = Equilibrium solubility of the compound […] at pH 7 measured after 3 days by LC-MS/MS analysis; type: physicochemical; conditions: time 3 day
[28] = tested on: Respiratory syncytial virus; experiment: Antiviral activity against RSV A Long infected in PO dosed cotton rat assessed as reduction in viral titer in BALF administered twice day from 1 day prior to infection to 3 days post-infection by plaque assay; type: functional, organism-based; conditions: human respiratory syncytial virus
[29] = Chromatographic hydrophobicity index, logD of the compound at pH 7.4 by UPLC analysis; type: physicochemical; conditions: buffer
[30] = Clearance in Beagle dog at 0.25 mg/kg, iv by LC-MS/MS analysis; type: ADME, organism-based, Canis lupus familiaris; conditions: in vivo
[31] = tested on: Respiratory syncytial virus; experiment: Antiviral activity against RSV A/18-001989 harboring eGFP infected in human HeLa cells assessed as reduction in virus replication measured after 3 days by laser microscopy; type: functional, organism-based; conditions: A/18-001989, HeLa, 72 h
[32] = tested on: Respiratory syncytial virus; experiment: Antiviral activity against RSV B/17-058221 harboring eGFP infected in human HeLa cells assessed as reduction in virus replication measured after 3 days by laser microscopy; type: functional, organism-based; conditions: B/17-058221, HeLa, 72 h
Rattus norvegicus [33] = experiment: Particle size for the 50th percentile of the cumulative volume distribution in Sprague-Dawley rat at 50 mg/kg, IM […]; type: ADME, organism-based; conditions: in vivo
[34] = tested on: Respiratory syncytial virus; experiment: Antiviral activity against RSV A2 infected in PO or IM dosed BALB/c mouse assessed as reduction in viral titer in BALF by plaque assay; type: functional, organism-based; conditions: human respiratory syncytial virus
[35] = tested on: Respiratory syncytial virus; experiment: Antiviral activity against RSV A Long harboring eGFP infected in human HeLa cells assessed as reduction in virus replication measured after 3 days by laser microscopy; type: functional, organism-based; conditions: 72 h
HeLa = experiment: Cytotoxicity against human HeLa cells assessed as reduction in cell viability at highest concentration measured after 3 days by ATPlite assay; type: toxicity, cell-based; conditions: 72 h, time 3 day
[36] = tested on: Respiratory syncytial virus; experiment: Antiviral activity against RSV B/14-006938 harboring eGFP infected in human HeLa cells assessed as reduction in virus replication measured after 3 days by laser microscopy; type: functional, organism-based; conditions: B/14-006938, HeLa, 72 h
[37] = tested on: Respiratory syncytial virus; experiment: Antiviral activity against RSV A2 harboring eGFP infected in human HeLa cells assessed as reduction in virus replication by measuring 3X protein-adjusted effective concentration for 90% inhibition measured after 3 days in presence of human serum albumin and alpha(1)-acid glycoprotein by laser microscopy; type: functional; conditions: time 3 day
[38] = Intrinsic clearance in human hepatocytes assessed per million cells at 1 uM measured after 180 mins by LC-MS/MS analysis; type: ADME, cell-based, Hepatocyte; conditions: read-out: CLH
[39] = Volume of distribution at steady state in Sprague-Dawley rat at 2.5 mg/kg, iv by LC-MS/MS analysis; type: ADME, organism-based; conditions: in vivo, read-out: Vdss
[40] = Clearance in Sprague-Dawley rat at 2.5 mg/kg, iv by LC-MS/MS analysis; type: ADME, organism-based; conditions: in vivo

CS(=O)(=O)N1CC2(C1)C(=O)N(Cc1nc3cc(Cl)ccc3n1CCCC(F)(F)F)c1ccccc12
microsomal CLint at 1 µM [1]: < 7.7 µL/min/mg | EC50 [2]: 1.6 nM | solubility thermodynamic at 24 h [3]: < 0.1 µg/mL | EC50 [4]: 0.78 nM | Particle size (D50) (Canis familiaris [5]): 5.06 um | EC50 [6]: 1.6 nM | Ka (Rattus norvegicus [7]): 0 h⁻¹ | EC50 [8]: 1.6 nM | Ka (Canis familiaris [9]): 0 h⁻¹ | EC50 [10]: 1.6 nM | Vd [11]: 5.3 L/kg | hepatocyte CLint [12]: < 1.2 µL/min/1e6 cells | EC50 [13]: 1.6 nM | EC50 [14]: 1.6 nM | EC50 [15]: 1.6 nM | EC50 [16]: 1.6 nM | bioavailability [17]: 52% | Vd [18]: 4.43 L/kg | EC50 [19]: 1.6 nM | EC50 [20]: 1.6 nM | clearance [21]: 18.5 mL/min/kg | EC50 [22]: 1.6 nM | EC50 [23]: 1.6 nM | bioavailability [24]: 50% | EC50 [25]: 1.6 nM | EC50 [26]: 1.6 nM | solubility at 72 h [27]: < 0.04 µM | EC50 [28]: 0.026 µg/mL (≈ 0.0493 µM) | CHI [29]: 3.39 | clearance [30]: 0.46 mL/min/kg | EC50 [31]: 1.6 nM | EC50 [32]: 1.6 nM | Median particle size (D50) (Rattus norvegicus [33]): 6.38 um | EC50 [34]: 0.088 µg/mL (≈ 0.167 µM) | EC50 [35]: 1.6 nM | Activity (HeLa): Non-toxic | EC50 [36]: 1.6 nM | protein-adjusted EC90 [37]: 0.034 µg/mL

O=C1N(Cc2nc3cc(Cl)ccc3n2CCCC(F)(F)F)c2cnccc2C12CN(S(=O)(=O)C1CC1)C2
hepatocyte CLint at 1 µM [38]: < 1.2 µL/min/1e6 cells | microsomal CLint at 1 µM [1]: < 7.7 µL/min/mg | solubility thermodynamic at 24 h [3]: < 0.1 µg/mL | EC50 [4]: 0.43 nM | Particle size (D50) (Canis familiaris [5]): 15.6 um | Ka (Rattus norvegicus [7]): 0.003 h⁻¹ | Ka (Canis familiaris [9]): 0.01 h⁻¹ | Vd [11]: 2.65 L/kg | bioavailability [17]: 88% | Vd [18]: 2.48 L/kg | clearance [21]: 43.5 mL/min/kg | bioavailability [24]: 93% | solubility at 72 h [27]: < 0.13 µM | CHI [29]: 2.81 | clearance [30]: 0.99 mL/min/kg | Median particle size (D50) (Rattus norvegicus [33]): 15.6 um | Activity (HeLa): Non-toxic | protein-adjusted EC90 [37]: 0.0082 µg/mL

CC(C)NC(=O)N1CC2(C1)C(=O)N(Cc1nc3cc(Cl)ccc3n1CCCC#N)c1ccccc12
hepatocyte CLint at 1 µM [38]: 1.5 µL/min/1e6 cells | microsomal CLint at 1 µM [1]: < 7.7 µL/min/mg | solubility thermodynamic at 24 h [3]: < 0.1 µg/mL | EC50 [4]: 0.58 nM | Particle size (D50) (Canis familiaris [5]): 5.34 um | Ka (Rattus norvegicus [7]): 0 h⁻¹ | Ka (Canis familiaris [9]): 0.001 h⁻¹ | Vd [11]: 0.56 L/kg | Vd [39]: 3.2 L/kg | bioavailability [17]: 21% | clearance [40]: 21 mL/min/kg | bioavailability [24]: 51% | solubility at 72 h [27]: < 0.25 µM | CHI [29]: 2.37 | clearance [30]: 4.9 mL/min/kg | Median particle size (D50) (Rattus norvegicus [33]): 5.48 um | Activity (HeLa): Non-toxic | protein-adjusted EC90 [37]: 0.06 µg/mL
